The subject of one data set is rat cardiomyocytes. The note with it: adenosine deaminase inhibition alone; cited from earlier work.
Data set [1] deals with isolated guinea pig hearts. The note with it: in the absence of ADA inhibition; cited from earlier work.
A further data set relates to rat brain slices. Conditions: cited from earlier work.
The next data set deals with guinea pig brain slices. The note with it: cited from earlier work.
Another data set concerns mice. Conditions: cited from earlier work.
The test system of a further data set is isolated rat hearts. Conditions: cited from earlier work.
For data set [2] the following is noted: in vivo; cited from earlier work.
For another data set, the target named is adenosine kinase. Description: adenosine kinase (AK) inhibition. The format is biochemical, pig heart or recombinant human. Conditions: 0.5 μM [U-14C] adenosine, pH 7.0, 20 minutes. The protocol: Adenosine kinase activity was measured essentially as described by Yamada et al. (Yamada, Y., Goto, H., Ogasawara, N. (1988) Biochim. Biophys. Acta 660, 36-43.) with a few minor modifications. […] Natl. Acad. Sci. […] The reactions were incubated for 20 minutes at […] The assay was quenched upon spotting 30 μL aliquots onto 2 cm^2 pieces of Whatman DE81 anion exchange paper. The papersquares were washed for 3 minutes in 6 L distilled/deionized water to remove the unreacted adenosine. The washed squares were rinsed in 95% ethanol and dried in an oven at 100° C. for 10 minutes. The amount of ^14 C-AMP was quantified by scintillation counting.

For data set [3], the system named is male SA rats. Briefly: anticonvulsant activity, maximal electroshock (MES) model. Type of data set: in vivo. Conditions: Rattus norvegicus, ip, 1 h before MES; >5 / <5: fewer / more than 50% of animals inhibited at 5 mg/kg in initial screen. The protocol:
The anticonvulsant activity of the tested compounds was evaluated in male SA rats (100-150 g, Simonsen) using the maximal electroshock (MES) model described in Swinyard et al., Antiepileptic Drugs, 3d Ed. at 85-102 (Levy, et al., eds.), NY: Raven Press (1989). The rats were maintained on a 12/12 light/dark cycle in temperature controlled facilities with free access to food and water. For p.o. administration, the animals are fasted overnight, prior to the experiment. One hour prior to seizure testing, the animals were injected interperitoneally (ip) or orally (per os, po) with one of various doses of test compound dissolved in DMSO or PEG 400.
Maximal electroshock seizures (MES) were induced by administering a 150 mA, 60 Hz current for 0.2 seconds via corneal electrodes using a Wahlquist Model H stimulator. […] This endpoint was expressed as the percentage of animals in which the response was inhibited. Typically, compounds were screened initially at one hour following a dose of 5 mg/kg ip. […] The results for exemplary compounds of the invention are set forth in Table 8, expressed as ED50 values.
(In general: Protection in the maximal electroshock model is a classic sign of anticonvulsant action.)

For the next data set, the system named is Rats. Description: anti-inflammatory activity, carrageenan paw. The format is in vivo, rat. Conditions: 10 mg/kg, swelling after 3 hours. The method, then:
Carrageenan (Type λ) was suspended in sterile PBS at 1% (w/v), autoclaved for 30 minutes, and stored at room temperature. Rats were pretreated with vehicle or AK inhibitor (10 mg/kg) by oral gavage or i.p. administration and the volume of the left hind paw was measured using a water displacement plethysmometer (Stoelting Co., Wood Dale, Ill.). One hour after oral treatment or 30 minutes after i.p. treatment, the rats were briefly anaesthetized, and 0.1 ml of the carrageenan solution was injected subcutaneously into the planar surface of the left hind paw. The ensuing paw swelling was measured by plethysmometry after 3 hours. The paw volume in milliliters was subtracted from the pre-injection paw volume. Data are presented in Table 8 as the percent inhibition of paw swelling in AK inhibitor treated animals, compared to vehicle treated control animals.

Another data set concerns Female SA rats. Briefly: liver toxicity, serum SGOT, SGPT and total bilirubin. The note with it: 2 x 37.5 μmol/kg i.v. infusion (total 75 μmol/kg), 12 h after second dose. Set-up: unit not given here. Type of data set: in vivo, rat. The protocol:
Female SA rats (150-200 g) were anesthetized with halothane and cannulated via the internal jugular vein. The animals were allowed to recover for 3 days. […] Twelve hours later, an additional 37.5 μmol kg was infused over 40 minutes (total dose=75 μmol/kg). Twelve hours after the second dose, the animals were anesthetized with halothane and exsanguinated through the descending aorta. Serum was prepared and liver enzymes (serum glutamic-oxaloacetic transaminase (SGOT), serum glutamic-pyruvic transaminase (SGPT)) and total bilirubin in the serum samples were determined by a commercial laboratory.

In data set [4] the test system is male SA rats. Description: rat skin lesion model, inhibition of neutrophil accumulation induced by carrageenan. Type of data set: in vivo. The note with it: i.p. The protocol: The dorsal skin of male SA rats was shaved and carrageenan (Type λ) or phosphate-buffered saline was injected intradermally. Three hours later, the injection sites were biopsied and weighed. Neutrophil content of the skin biopsies was measured as the quantity of myeloperoxidase (MPO) present in a tissue homogenate. The excised, weighed skin pieces were placed in 4 ml 0.5% mixed alkyl trimethylammonium bromide and homogenized at the highest speed for 15 seconds in a Polytron homogenizer (Brinkmann Instruments, Westbury, N.Y.). Lipids were extracted by adding 1 ml of dichloromethane to the homogenate, vortexing vigorously, and centrifuging at 1000 g, 5° C. for 15 min. Fifty μl of each supernatant was added in duplicate to a 96 well assay plate, along with dilutions of human myeloperoxidase standard. Potassium phosphate buffer (pH 6.1) containing 0.36 mg/ml of o-dianisidine dihydrochloride and 0.001% hydrogen peroxide was added (200 μl/well), and the absorbance at 450 nm was read after 5 min incubation at room temperature. The myeloperoxidase content of each skin piece was calculated from a standard curve constructed using least-square regression, and expressed as units of MPO/g of tissue.
AK inhibitors were administered orally using polyethylene glycol-400 as vehicle or intraperitoneally using dimethylsulfoxide as vehicle, at indicated time before skin lesion injection. For each experiment, the average of all values from saline-induced lesions was calculated. This baseline value was then subtracted from values obtained from carrageenan-induced lesions. Percent inhibition for AK inhibitors were calculated from these baseline-corrected values.

For another data set, the system named is Rats (male, Simonsen). Briefly: formalin paw model. The format is in vivo, rat. More on the design: concentration or dose not given beside the values. The note with it: oral, 90 min before formalin. The method, then: In this assay, injection of formalin, an irritant, into the hindpaw of rats typically evokes a biphasic response of pain-related behaviors. Phase 1 of the response which is brief, lasting approximately 0-5 min post-injection,is followed by a more prolonged phase 2, lasting approximately 10-80 min post-injection. Phase 1 behavior is thought to be a direct effect of the irritant on nociceptors at the injection site while phase 2 behavior is thought to include a hyperalgesic component mediated by sensitization of neuronal elements within the spinal cord. Studies from other laboratories have found the first portion of Phase 2 (sometimes referred to as Phase 2a) to be most responsive to pharmacological manipulation.
Rats (male, Simonsen) weighing between 100-200 g, are used in the present experiments. For screening purposes drugs are administered orally 90 min prior to initiation of formalin test. At designated intervals the animals in groups of 4 are placed individually in a small animal restrainer with the right hindpaw accessible through a hole in the bottom of the restrainer. The formalin paw assay is initiated by the injection using a 30G needle of 50 μl of a 5% formalin solution in saline into the right plantar surface of each hindpaw. The rat is then immediately placed in a separate plexiglass box and scoring (described below) of the animal's behavior is begun at 1.7 min after formalin injection. The instantaneous behavior of each animal in a group of 4 was observed and assigned a score once in each 20 second interval. This sequence is repeated over a 30 min period. The scoring protocol is an adaptation of the method published by Dubuisson and Dennis (Pain 4:161-174, 1977) which assigns a score from 0-3 as follows:
0--no discernible favoring of injected paw, weight evenly distributed
1--injected paw is favored, rests lightly on floor
2--injected paw is elevated
3--injected paw is vigorously licked, bitten or shake
Scores are continuously recorded directly onto an Excel spreadsheet. […] 2) the total number of incidences specifically of licking/biting behavior is summed over Phase 2 and mean values determined from 6 different animals with results expressed as % inhibition compared to vehicle control.

pIC50: −log10 of the molar value. Read-outs that look alike come from different tables or passages of the source.

As for `OC[C@H]1O[C@@H](n2cnc3c2N=CNC[C@H]3O)C[C@@H]1O` [2'-deoxycoformycin], the “effect on adenosine release from the cells” value in the data set on rat cardiomyocytes was “no effect on adenosine release”.

For the compound `NC[C@H]1O[C@@H](n2cnc3c(N)ncnc32)[C@H](O)[C@@H]1O` [5'-amino-5'-deoxyadenosine], in data set [1], the adenosine release effect entry was “not apparent”.

For `C[C@H]1O[C@@H](n2cc(I)c3c(N)ncnc32)[C@H](O)[C@@H]1O` [5'-deoxy-5-iodotubercidin], the adenosine uptake result with rat brain slices and with guinea pig brain slices was “adenosine uptake was reportedly inhibited” throughout. Also, the general flaccidity entry with mice was “pronounced general flaccidity”.

Consider `Nc1ncnc2c1c(I)cn2[C@@H]1O[C@H](CO)[C@@H](O)[C@H]1O` [5-iodotubercidin], for which the “increase in perfusate adenosine concentration” value in the data set on isolated rat hearts (hypoxic, anoxic or ischemic conditions) is “no increase in perfusate adenosine concentration”; in the data set on isolated rat hearts (normoxic conditions), “no increase in perfusate adenosine concentration”. In addition, the adenosine uptake result in the data set with rat brain slices and with guinea pig brain slices was “adenosine uptake was reportedly inhibited” each time. For the same compound, in the data set on mice, the general flaccidity entry is “pronounced general flaccidity”. Besides, the “protection against ischemic cerebral injury” value in data set [2] was “apparently does not protect against ischemic cerebral injury”.

As a reminder, the pIC50 is −log10 of the IC50, conventionally taken in molar units. One may read the ED50 as the dose at which the effect has come halfway, by size or by number of responders. In the case of `O[C@@H]1[C@H](O)CO[C@H]1n1cc(-c2ccccc2)c2c(Nc3ccccc3)ncnc21` [compound 27], on adenosine kinase, the pIC50 was 8.40. The ED50 at 5 mg/kg with male SA rats [3] was less than 5 mg/kg. Also, the “Carrageenan Paw (% inh) i.p.” value in the data set with Rats (i.p., 30 min before carrageenan) is given as 44%. Also, the “Carrageenan Paw (% inh) p.o.” value in the data set with Rats (p.o., 1 h before carrageenan) was determined as 12%. For the same compound, in the data set with Female SA rats, the “average serum Total Bilirubin” value was determined as 0.14. Also, the “average serum content of SGOT” value in the data set with Female SA rats was found to be 114. The “average serum content of SGPT” value in the data set with Female SA rats was determined as 41. Moreover, the “% inhibition of neutrophil accumulation” value came to 2% in the data set with male SA rats [4] (pretreatment 30 min, 3 mg/kg); 59% in the data set with male SA rats [4] (pretreatment 30 min, 10 mg/kg); 89% in the data set on male SA rats [4] (pretreatment 30 min, 30 mg/kg); 60% in the data set on male SA rats [4] (pretreatment 60 min, 10 mg/kg); 14% in the data set on male SA rats [4] (pretreatment 120 min, 10 mg/kg); 2% in the data set with male SA rats [4] (pretreatment 180 min, 10 mg/kg). The “% inhibition of neutrophil accumulation” value with male SA rats [4] (pretreatment 240 min, 10 mg/kg) came out at 0%; in the data set with male SA rats [4] (pretreatment 360 min, 10 mg/kg), 0%. In the data set with Rats (male, Simonsen) (1.7-5 min post-formalin), the “% Inhibition Phase 1 Composite score” value was found to be 25.5%. Moreover, in the data set with Rats (male, Simonsen) (10.3-30 min post-formalin), the “% Inhibition Phase 2 Composite score” value is on record as 47.6%. The “% Inhibition Phase 2. Licking/biting” value with Rats (male, Simonsen) (Phase 2) worked out at 77.5%.

Source of the values: US5763596A, “C-4' modified adenosine kinase inhibitors” (Metabasis Therapeutics, Inc., priority 1996, dated 1998).
